Experimental data reported in PubChem BioAssay AID1259407 (Chemical Carcinogenesis Research Information System (CCRIS), 2018).
Activity calls are given as the source filed them. The rule behind the calls is not given here.

Test system: CCRIS mutagenicity, Ames/micronucleus/aberration tests
Assay: CCRIS mutagenicity studies
[1] = Test System: AMES SALMONELLA TYPHIMURIUM, Strain/Indicator: TA98, Metabolic Activation: NONE, Method: STANDARD PLATE
[2] = Test System: AMES SALMONELLA TYPHIMURIUM, Strain/Indicator: TA100, Metabolic Activation: NONE, Method: STANDARD PLATE
[3] = Test System: AMES SALMONELLA TYPHIMURIUM, Strain/Indicator: TA1535, Metabolic Activation: NONE, Method: STANDARD PLATE
[4] = Test System: AMES SALMONELLA TYPHIMURIUM, Strain/Indicator: TA1537, Metabolic Activation: NONE, Method: STANDARD PLATE

Measured: mutagenic call

FC(F)(F)CC(F)(F)F
inactive: Test System: AMES SALMONELLA TYPHIMURIUM, Strain/Indicator: TA97, Metabolic Activation: NONE, Method: CLOSED GLASS VESSEL inactive; negative | Test System: AMES SALMONELLA TYPHIMURIUM, Strain/Indicator: TA97, Metabolic Activation: RAT LIVER S-9, AROCLOR 1254, Method: CLOSED GLASS VESSEL inactive; negative | Test System: AMES SALMONELLA TYPHIMURIUM, Strain/Indicator: TA98, Metabolic Activation: NONE, Method: CLOSED GLASS VESSEL inactive; negative | Test System: AMES SALMONELLA TYPHIMURIUM, Strain/Indicator: TA98, Metabolic Activation: RAT LIVER S-9, AROCLOR 1254, Method: CLOSED GLASS VESSEL inactive; negative | Test System: AMES SALMONELLA TYPHIMURIUM, Strain/Indicator: TA100, Metabolic Activation: NONE, Method: CLOSED GLASS VESSEL inactive; negative | Test System: AMES SALMONELLA TYPHIMURIUM, Strain/Indicator: TA100, Metabolic Activation: RAT LIVER S-9, AROCLOR 1254, Method: CLOSED GLASS VESSEL inactive; negative | Test System: AMES SALMONELLA TYPHIMURIUM, Strain/Indicator: TA1535, Metabolic Activation: NONE, Method: CLOSED GLASS VESSEL inactive; negative | Test System: AMES SALMONELLA TYPHIMURIUM, Strain/Indicator: TA1535, Metabolic Activation: RAT LIVER S-9, AROCLOR 1254, Method: CLOSED GLASS VESSEL inactive; negative | Test System: ESCHERICHIA COLI, Strain/Indicator: WP2 UVR A, Metabolic Activation: NONE, Method: CLOSED GLASS VESSEL inactive; negative | Test System: ESCHERICHIA COLI, Strain/Indicator: WP2 UVR A, Metabolic Activation: RAT LIVER S-9, AROCLOR 1254, Method: CLOSED GLASS VESSEL inactive; negative

O=[N+]([O-])c1cccc(NS(=O)(=O)c2cccc3cccnc23)c1
inactive: [1] inactive; negative | Test System: AMES SALMONELLA TYPHIMURIUM, Strain/Indicator: TA98, Metabolic Activation: RAT, LIVER, S-9, AROCLOR 1254, Method: STANDARD PLATE inactive; negative | [2] inactive; negative | Test System: AMES SALMONELLA TYPHIMURIUM, Strain/Indicator: TA100, Metabolic Activation: RAT, LIVER, S-9, AROCLOR 1254, Method: STANDARD PLATE inactive; negative | [3] inactive; negative | Test System: AMES SALMONELLA TYPHIMURIUM, Strain/Indicator: TA1535, Metabolic Activation: RAT, LIVER, S-9, AROCLOR 1254, Method: STANDARD PLATE inactive; negative | [4] inactive; negative | Test System: AMES SALMONELLA TYPHIMURIUM, Strain/Indicator: TA1537, Metabolic Activation: RAT, LIVER, S-9, AROCLOR 1254, Method: STANDARD PLATE inactive; negative

c1ccc2sc(SN3CCOCC3)nc2c1
inactive: [1] inactive; negative | Test System: AMES SALMONELLA TYPHIMURIUM, Strain/Indicator: TA98, Metabolic Activation: S-9, Method: STANDARD PLATE inactive; negative | [2] inactive; negative | Test System: AMES SALMONELLA TYPHIMURIUM, Strain/Indicator: TA100, Metabolic Activation: S-9, Method: STANDARD PLATE inactive; negative

NCCc1c[nH]c2ccc(O)cc12 (tested in a mixture with another compound)
inactive: Test System: AMES SALMONELLA TYPHIMURIUM, Strain/Indicator: TA97A, Metabolic Activation: NONE, Method: STANDARD PLATE inactive; negative | Test System: AMES SALMONELLA TYPHIMURIUM, Strain/Indicator: TA97A, Metabolic Activation: RAT LIVER S-9, PHENOBARBITOL/BETA-NAPHTHOFLAVONE, Method: STANDARD PLATE inactive; negative | [1] inactive; negative | Test System: AMES SALMONELLA TYPHIMURIUM, Strain/Indicator: TA98, Metabolic Activation: RAT LIVER S-9, PHENOBARBITOL/BETA-NAPHTHOFLAVONE, Method: STANDARD PLATE inactive; negative | [2] inactive; negative | Test System: AMES SALMONELLA TYPHIMURIUM, Strain/Indicator: TA100, Metabolic Activation: RAT LIVER S-9, PHENOBARBITOL/BETA-NAPHTHOFLAVONE, Method: STANDARD PLATE inactive; negative | [3] inactive; negative | Test System: AMES SALMONELLA TYPHIMURIUM, Strain/Indicator: TA1535, Metabolic Activation: RAT LIVER S-9, PHENOBARBITOL/BETA-NAPHTHOFLAVONE, Method: STANDARD PLATE inactive; negative | [4] inactive; negative | Test System: AMES SALMONELLA TYPHIMURIUM, Strain/Indicator: TA1537, Metabolic Activation: RAT LIVER S-9, PHENOBARBITOL/BETA-NAPHTHOFLAVONE, Method: STANDARD PLATE inactive; negative | Test System: E.COLI, Strain/Indicator: WP2/UVRA, Metabolic Activation: NONE, Method: STANDARD PLATE inactive; negative | Test System: E.COLI, Strain/Indicator: WP2/UVRA, Metabolic Activation: RAT LIVER S-9, PHENOBARBITOL/BETA-NAPHTHOFLAVONE, Method: STANDARD PLATE inactive; negative

O=[N+]([O-])c1cccc2[nH]c3ccccc3c12
active: [1] active; positive | Test System: AMES SALMONELLA TYPHIMURIUM, Strain/Indicator: TA98, Metabolic Activation: RAT, LIVER, S-9, PHENOBARBITAL, Method: STANDARD PLATE active; positive | Test System: AMES SALMONELLA TYPHIMURIUM, Strain/Indicator: TA1538, Metabolic Activation: NONE, Method: STANDARD PLATE active; positive | Test System: AMES SALMONELLA TYPHIMURIUM, Strain/Indicator: TA1538, Metabolic Activation: RAT, LIVER, S-9, PHENOBARBITAL, Method: STANDARD PLATE active; positive
inactive: [4] inactive; negative | Test System: AMES SALMONELLA TYPHIMURIUM, Strain/Indicator: TA1537, Metabolic Activation: RAT, LIVER, S-9, PHENOBARBITAL, Method: STANDARD PLATE inactive; negative | Test System: AMES SALMONELLA TYPHIMURIUM, Strain/Indicator: TA1977, Metabolic Activation: NONE, Method: STANDARD PLATE inactive; negative | Test System: AMES SALMONELLA TYPHIMURIUM, Strain/Indicator: TA1977, Metabolic Activation: RAT, LIVER, S-9, PHENOBARBITAL, Method: STANDARD PLATE inactive; negative
